Assay results taken from EPA's ToxValDB 9.5.
≈ marks a conversion by molar mass, not a printed value. Where “and” joins values, the source holds several entries; their conditions need not be identical. Identical values can stand only once.

Tests used:
[1] = system: Mus musculus; conditions: oral, gavage
[2] = system: Rattus norvegicus; conditions: for LC50 / LD50: acute
[3] = system: Oryctolagus sp.; conditions: for LD50: acute, dermal
[4] = system: Canidae; conditions: Beagle
[5] = system: Cricetulus sp.; conditions: acute; oral; Chinese
[6] = system: Rattus norvegicus; conditions: oral, gavage
[7] = system: Sus scrofa; conditions: repeat dose other; oral; diet; M/F; Not specified; Renal proximal tubule degeneration & interstitial nephropathy
[8] = system: Rattus norvegicus; experiment: LC100; higher = less toxic; conditions: acute; inhalation; Sprague-Dawley
[9] = system: Rattus norvegicus; experiment: LD10; higher = less toxic; conditions: acute; inhalation
[10] = system: Mus musculus; experiment: LD100; higher = less toxic; conditions: acute; oral; gavage; B6C3F1
[11] = system: Rattus norvegicus; conditions: reproduction developmental; inhalation; whole body; M/F; Crl:CD(SD); Hepatic, Urinary
[12] = system: Canidae; conditions: subchronic; duration: 13 weeks; oral; capsule; M/F; Dog Other; histopathologic liver
[13] = system: Cavia porcellus; conditions: uterotrophic; duration: 12 days; injection; subcutaneous; Guinea Pig; Active
[14] = system: Rattus norvegicus; experiment: LC50; conditions: acute; oral; gavage
[15] = system: Rattus norvegicus; conditions: dietary / carcinogenicity; duration: 2 years; oral; feed; M/F; Hepatocellular lipid vacuolation
[16] = developmental, duration: 10 days, oral, gavage, Sprague-Dawley
[17] = reproduction developmental, duration: 10 days, oral, gavage, F, Sprague-Dawley
[18] = short-term, duration: 28 days, M, Sprague-Dawley, Clinical Observation: Salivation increase + Blood Chemistry: AST increase, T-Cho decrease, CRE increase, TP increase, ALB increase, GLUC …
[19] = short-term, duration: 18 days, inhalation, Sprague-Dawley
[20] = reproduction developmental, duration: 13 weeks, B6C3F1, generation: F0
[21] = reproduction developmental, duration: 13 weeks, oral, gavage, Fischer 344, generation: F0
[22] = short-term, duration: 28 days, oral, diet, Sprague-Dawley
[23] = subchronic, duration: 90 days, oral, diet, Sprague-Dawley
[24] = reproduction developmental, duration: 12 days, oral, gavage, F, New Zealand

## CCCCCCCCCCCCCCCCCCOC(=O)CCc1cc(C(C)(C)C)c(O)c(C(C)(C)C)c1 [Octadecyl 3-(3,5-di-tert-butyl-4-hydroxyphenyl)propionate]
[1]; developmental, duration: 10 days, NMRI
  NOAEL: > 1000 mg/kg-day
[1]; reproduction developmental, duration: 10 days, F, NMRI
  NOAEL: 500 mg/kg-day
[2]; inhalation
  LC50: > 1.8 µg/mL
[2]; inhalation, particle
  LC50: > 1.8 µg/mL
[2]; injection, Intraperitoneal
  LD50: > 1000 mg/kg
[2]; injection, intraperitoneal
  LD50: > 1000 mg/kg
[2]; oral
  LD50: > 5000 mg/kg
[2]; chronic, duration: 104 weeks, oral, diet, Cfy
  NOAEL: 39 mg/kg-day
[2]; [16]
  NOAEL: > 1000 mg/kg-day
[2]; developmental, oral, diet
  LOAEL: 500 ppm
[2]; reproduction developmental, duration: 10 months, oral, diet, COBS(R)CD(R), generation: F0
  NOAEL: 1500 ppm
[2]; reproduction developmental, duration: 10 months, oral, diet, COBS(R)CD(R), generation: F1
  NOAEL: < 500 ppm
[2]; reproduction developmental, duration: 10 months, oral, diet, COBS(R)CD(R), generation: F2
  NOAEL: < 500 ppm
[2]; [17]
  NOAEL: 150 mg/kg-day
[2]; reproduction developmental, duration: 10 days, oral, gavage, generation: F0
  NOAEL: 150 mg/kg-day
[2]; reproduction developmental, oral, diet, F
  NOAEL: 1500 ppm
[2]; reproduction developmental, oral, diet, generation: F0
  NOAEL: 1500 ppm
[2]; short-term, duration: 21 days, inhalation, RAI f (SPF)
  NOAEL: > 0.543 mg/L
[2]; short-term, duration: 28 days, oral, diet, F
  NOAEL: 1000 mg/kg-day
[2]; short-term, duration: 28 days, oral, diet, M
  NOAEL: 100 mg/kg-day
[2]; short-term, duration: 28 days, oral, gavage, Sprague-Dawley
  NOAEL: 30 mg/kg-day
[3]
  LD50: > 2000 mg/kg
[4]; subchronic, duration: 3 months, oral, diet
  NOAEL: ≥ 31.5 mg/kg-day and ≤ 34.5 mg/kg-day
[5]
  LD50: > 6000 mg/kg
[6]; short-term, duration: 28 days, M/F, Sprague-Dawley, Urinalysis: N/A(measured only 16h volume) + Absolute Organ Weight: Liver increase + Relative Organ Weight: Liver increase + Necropsy: Kidney…
  NOAEL: 30 mg/kg-day

## C[C@@H]1Cc2c(Cl)cc(C(=O)N[C@@H](Cc3ccccc3)C(=O)O)c(O)c2C(=O)O1 [Ochratoxin A]
[6]; [18]
  NOAEL: < 0.2 mg/kg-day
  NOEL: < 0.2 mg/kg-day
[6]; subchronic, duration: 13 weeks, M/F, Fischer 344, Body Weight Changes: decrease + Relative Organ Weight: Right kidney decrease + Histopathology: Kidney-Karyomegaly Kidney-Atrophy Kidney/…
  NOEL: < 0.0625 mg/kg-day
[7]
  LOEL: 0.008 mg/kg-day

## CCC#N [Propionitrile]
[2]; inhalation, Sprague-Dawley
  LC50: 3.3 µg/mL (≈ 59.9 µM)
[2]; developmental, duration: 6 days, oral, gavage, Sprague-Dawley
  NOAEL: 40 mg/kg-day
[2]; reproduction developmental, duration: 14 weeks, inhalation, Sprague-Dawley
  NOAEL: > 471 mg/m3
[2]; reproduction developmental, duration: 46 days, inhalation, Sprague-Dawley, generation: F0
  NOAEL: 135 mg/m3
[2]; reproduction developmental, duration: 46 days, inhalation, Sprague-Dawley, generation: F1
  NOAEL: 473 mg/m3
[2]; [19]
  LOAEL: 741 mg/m3
  NOAEL: 259 mg/m3
[3]; occlusive, New Zealand
  LD50: 90 mg/kg and 40 mg/kg and 56 mg/kg
[8]
  LC100: 90.3 mg/L

## C=C1CC(=O)O1 [Diketene]
[1]; acute
  LD50: ≥ 800 mg/kg and ≤ 1600 mg/kg
[2]; oral, gavage
  LD50: ≥ 400 mg/kg and ≤ 800 mg/kg
[9]
  LD10: 1270 mg/m3 and ≥ 1190 mg/m3 and ≤ 1410 mg/m3

## Clc1ccccc1 [Chlorobenzene]
[10]
  LD100: 1000 mg/kg
[1]; [20]
  LOAEL: 250 mg/kg-day
  NOAEL: 125 mg/kg-day
[2]; oral, Sprague-Dawley
  LD50: 1540 mg/kg
[2]; oral, gavage, Fischer 344
  LD50: ≥ 2000 mg/kg and ≤ 4000 mg/kg
[2]; [21]
  LOAEL: 250 mg/kg-day
  NOAEL: 125 mg/kg-day
[2]; reproduction developmental, inhalation, Sprague-Dawley, generation: F0
  NOAEL: 230 mg/m3
[2]; reproduction developmental, inhalation, Sprague-Dawley, generation: F1
  NOAEL: 2070 mg/m3
[2]; reproduction developmental, inhalation, Sprague-Dawley, generation: F2
  NOAEL: 2070 mg/m3
[3]; New Zealand
  LD50: > 7940 mg/kg
[3]; reproduction developmental, duration: 13 days, inhalation, F, New Zealand
  NOAEL: 345 mg/m3
[3]; reproduction developmental, duration: 13 days, inhalation, New Zealand, generation: F1
  NOAEL: 2720 mg/m3
[4]; chronic, duration: 6 months, inhalation
  NOAEL: 2.06 mg/L
[4]; chronic, duration: 93 days, oral
  NOAEL: 54.5 mg/kg-day
[6]; subchronic, duration: 13 weeks, M/F, Fischer 344, Deaths + Body Weight Changes: decrease + Urinalysis: Volume increase, Coproporphyrin increase + Blood Chemistry: Cho increase, TG decrease, …
  NOEL: < 60 mg/kg-day
[11]
  NOAEL: 230 mg/m3
[12]
  LOAEL: 54.5 mg/kg-day
  NOAEL: 27.2 mg/kg-day

## CC/C(=C(\c1ccccc1)c1ccc(OCCN(C)C)cc1)c1ccccc1 [Tamoxifen]
[13]
  LEL: 0.1 mg/day

## O=C1c2c(Br)c(Br)c(Br)c(Br)c2C(=O)N1CCN1C(=O)c2c(Br)c(Br)c(Br)c(Br)c2C1=O [1,2-Bis(tetrabromophthalimido)ethane]
[2]; [16]
  NOAEL: ≥ 1000 mg/kg-day
[2]; [17]
  NOAEL: ≥ 1000 mg/kg-day
[2]; [22]
  LOAEL (% diet): > 1
  NOAEL (% diet): ≥ 1
[2]; [23]
  LOAEL: ≥ 1000 mg/kg-day
  NOAEL: ≥ 1000 mg/kg-day
  NOAEL (% diet): 1
[3]; [24]
  LOAEL: < 1000 mg/kg-day
  NOAEL: ≥ 1000 mg/kg-day
[14]
  LD50: > 7500 mg/kg

## COC(=O)Nc1nc2ccc(S(=O)c3ccccc3)cc2[nH]1 (configuration not stated) [Oxfendazole]
[15]
  NOEL: 0.7 mg/kg-day
